Experimental findings from ChEMBL document CHEMBL1201862, “PubChem BioAssay data set” (2004) are described below.

Calls of active or inactive are those of the source. Rule as the data show it, for most assays here: actives have a measured EC50 and inactives only a lower limit.

Assay [1] is described as follows: luciferase reporter signal suppression in cells – H4 neuroglioma cells, luminescence, dose response (AID 1990). The class given is functional, cell-based. Background: A reporter such as luciferase makes a cellular process visible.
Assay [2] is described as follows: Luminescence Cell-Based Dose Response HTS to Identify Inhibitors of 5'UTR Stem-Loop Driven Prion Protein mRNA Translation in H4 Neuroglioblastoma Cells. [Related pubchem assays: 1827 (Project Summary), 1813 (Primary HTS)]. The class given is functional.
A short description of assay [3]: alpha-synuclein stem-loop luciferase translation blockers – H4 neuroglioma cells, luminescence, confirmation (AID 1988). It is filed as functional, cell-based.
Assay [4] has as its system Streptococcus sp. 'group A'. Briefly: Streptococcus pyogenes SK(-)GAS viability under kanamycin – luminescence, BacTiterGlo, confirmation, counter-screen for streptokinase expression inhibitor project, dose response (AID 1900). It is filed as functional, organism-based. In general terms: The purpose of a counterscreen is to sort out artefacts and off-target activity.
A further assay has as its target T1, Streptokinase A (Streptococcus pyogenes serotype M1, UniProt P10520).
T1 sequence (P10520 whole entry): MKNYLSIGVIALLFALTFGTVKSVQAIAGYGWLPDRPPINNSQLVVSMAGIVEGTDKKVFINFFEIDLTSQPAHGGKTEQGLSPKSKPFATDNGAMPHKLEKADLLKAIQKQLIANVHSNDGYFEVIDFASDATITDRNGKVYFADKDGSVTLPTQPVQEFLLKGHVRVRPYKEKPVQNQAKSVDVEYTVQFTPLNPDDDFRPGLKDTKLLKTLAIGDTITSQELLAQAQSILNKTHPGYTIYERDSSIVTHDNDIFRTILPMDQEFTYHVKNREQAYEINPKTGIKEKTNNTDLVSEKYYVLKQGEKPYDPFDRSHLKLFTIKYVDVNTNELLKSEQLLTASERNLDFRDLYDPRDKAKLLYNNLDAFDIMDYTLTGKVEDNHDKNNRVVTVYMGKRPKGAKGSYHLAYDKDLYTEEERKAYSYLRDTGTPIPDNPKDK
Kind of assay: viability-normalized secreted streptokinase activity reduction – plasminogen activation absorbance, OD405, dose response (AID 1914).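 Also: secreted streptokinase activity via plasminogen activation per viability signal from cell pellet.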 The class given is functional, Streptococcus pyogenes M1 GAS.

Assay [5] deals with Luciferin 4-monooxygenase (Photinus pyralis, UniProt P08659). Kind of assay: inhibition of purified Photinus pyralis luciferase – biochemical, luminescence, dose response (AID 1891).
Sequence of Luciferin 4-monooxygenase (P08659 whole entry): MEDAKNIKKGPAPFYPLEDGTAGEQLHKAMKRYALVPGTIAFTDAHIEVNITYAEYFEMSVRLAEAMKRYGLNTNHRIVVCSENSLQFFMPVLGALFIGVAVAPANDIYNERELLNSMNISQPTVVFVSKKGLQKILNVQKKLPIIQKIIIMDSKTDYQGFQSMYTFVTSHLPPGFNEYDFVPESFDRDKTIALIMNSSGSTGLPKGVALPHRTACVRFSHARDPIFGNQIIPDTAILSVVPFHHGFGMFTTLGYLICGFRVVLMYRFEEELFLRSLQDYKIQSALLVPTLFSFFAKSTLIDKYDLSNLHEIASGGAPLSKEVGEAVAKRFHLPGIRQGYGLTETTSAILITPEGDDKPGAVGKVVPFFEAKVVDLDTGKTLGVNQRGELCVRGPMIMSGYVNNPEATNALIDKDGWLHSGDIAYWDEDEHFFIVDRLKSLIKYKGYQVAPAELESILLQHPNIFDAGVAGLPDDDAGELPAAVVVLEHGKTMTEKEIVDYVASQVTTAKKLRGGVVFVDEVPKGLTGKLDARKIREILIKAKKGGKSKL
A short description of assay [6]: Luminescence Cell-Based Dose Confirmation HTS to Identify Inhibitors of Platelet Dense Granule Release. [Related pubchem assays: 1663 (Primary HTS), 1678 (Summary of Project)]. It is filed as functional.
The next assay relates to Streptococcus. Kind of assay: GAS UMAA2166 growth inhibition – luminescence, BacTiterGlo, counter-screen for streptokinase expression inhibitor project, dose response (AID 1915).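 Also: potency for reduction of bacterial viability or growth.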 It is filed as functional, organism-based.
Assay [7] has as its target T2, Sentrin-specific protease 7 (Homo sapiens, UniProt Q9BQF6).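 Also: Luminescence-based dose-response confirmation of ultra-high-throughput screening hits, measuring inhibition of SENP7.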
T2 sequence (Q9BQF6 whole entry): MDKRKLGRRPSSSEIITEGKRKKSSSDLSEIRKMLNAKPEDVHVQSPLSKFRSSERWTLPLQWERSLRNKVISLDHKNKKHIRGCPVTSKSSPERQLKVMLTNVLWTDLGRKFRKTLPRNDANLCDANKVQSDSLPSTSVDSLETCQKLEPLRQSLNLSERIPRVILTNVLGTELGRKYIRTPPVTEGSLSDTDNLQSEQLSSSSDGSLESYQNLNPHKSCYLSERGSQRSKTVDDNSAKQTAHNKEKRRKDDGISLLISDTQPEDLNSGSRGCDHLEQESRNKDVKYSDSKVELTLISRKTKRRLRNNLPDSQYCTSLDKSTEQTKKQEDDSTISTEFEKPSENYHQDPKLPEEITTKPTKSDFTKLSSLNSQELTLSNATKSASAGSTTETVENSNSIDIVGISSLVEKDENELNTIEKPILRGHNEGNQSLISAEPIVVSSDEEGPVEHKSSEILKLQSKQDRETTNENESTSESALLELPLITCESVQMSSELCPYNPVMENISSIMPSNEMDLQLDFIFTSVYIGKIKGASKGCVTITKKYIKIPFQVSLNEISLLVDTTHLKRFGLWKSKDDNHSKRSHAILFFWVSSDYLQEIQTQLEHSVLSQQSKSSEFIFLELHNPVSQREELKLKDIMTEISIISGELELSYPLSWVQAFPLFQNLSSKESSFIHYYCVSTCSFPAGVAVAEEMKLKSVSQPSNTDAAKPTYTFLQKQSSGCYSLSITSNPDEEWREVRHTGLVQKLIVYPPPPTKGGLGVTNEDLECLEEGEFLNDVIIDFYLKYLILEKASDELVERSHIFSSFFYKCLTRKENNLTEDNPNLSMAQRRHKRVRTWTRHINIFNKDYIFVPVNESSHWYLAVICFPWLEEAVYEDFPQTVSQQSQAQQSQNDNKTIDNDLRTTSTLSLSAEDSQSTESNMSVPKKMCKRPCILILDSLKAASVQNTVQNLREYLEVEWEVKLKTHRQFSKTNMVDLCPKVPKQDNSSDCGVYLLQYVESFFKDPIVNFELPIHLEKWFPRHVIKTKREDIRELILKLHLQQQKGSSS
The class given is functional.

Assay [8] deals with T3, Sentrin-specific protease 6 (Homo sapiens, UniProt Q9GZR1).
T3 sequence (Q9GZR1 whole entry): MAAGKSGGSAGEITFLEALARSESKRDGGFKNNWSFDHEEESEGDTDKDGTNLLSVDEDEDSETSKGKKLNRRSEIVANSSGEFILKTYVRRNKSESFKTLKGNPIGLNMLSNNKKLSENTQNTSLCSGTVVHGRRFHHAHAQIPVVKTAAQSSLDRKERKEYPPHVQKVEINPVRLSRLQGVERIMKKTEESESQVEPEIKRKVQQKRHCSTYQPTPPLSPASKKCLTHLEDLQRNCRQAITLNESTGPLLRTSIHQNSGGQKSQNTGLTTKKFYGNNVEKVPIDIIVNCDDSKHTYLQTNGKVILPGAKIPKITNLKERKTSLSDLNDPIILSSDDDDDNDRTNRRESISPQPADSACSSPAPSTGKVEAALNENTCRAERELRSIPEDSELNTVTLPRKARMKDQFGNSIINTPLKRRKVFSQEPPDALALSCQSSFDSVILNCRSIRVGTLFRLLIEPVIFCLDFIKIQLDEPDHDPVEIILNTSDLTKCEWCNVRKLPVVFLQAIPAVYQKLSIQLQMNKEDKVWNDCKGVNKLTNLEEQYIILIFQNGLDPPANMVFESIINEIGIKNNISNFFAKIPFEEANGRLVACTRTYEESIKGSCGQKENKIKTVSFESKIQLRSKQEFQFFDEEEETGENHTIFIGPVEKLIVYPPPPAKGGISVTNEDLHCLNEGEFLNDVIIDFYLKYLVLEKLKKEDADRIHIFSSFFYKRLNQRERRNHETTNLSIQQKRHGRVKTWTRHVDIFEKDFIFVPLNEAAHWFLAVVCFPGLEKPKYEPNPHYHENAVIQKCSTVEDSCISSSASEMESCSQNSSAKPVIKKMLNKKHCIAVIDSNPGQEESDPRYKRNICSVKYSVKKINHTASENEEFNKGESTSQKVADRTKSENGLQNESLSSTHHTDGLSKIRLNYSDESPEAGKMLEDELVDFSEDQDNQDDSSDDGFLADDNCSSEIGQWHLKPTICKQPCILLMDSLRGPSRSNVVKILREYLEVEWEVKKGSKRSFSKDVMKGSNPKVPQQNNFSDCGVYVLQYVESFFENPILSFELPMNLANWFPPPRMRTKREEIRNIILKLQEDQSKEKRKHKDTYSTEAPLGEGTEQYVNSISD
The class given is functional.

The target of assay [9] is T4, Sentrin-specific protease 8 (Homo sapiens, UniProt Q96LD8).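 Also: luminescence read-out of SENP8 inhibition, dose-response confirmation following an ultra-high-throughput screen.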
T4 sequence (Q96LD8 whole entry): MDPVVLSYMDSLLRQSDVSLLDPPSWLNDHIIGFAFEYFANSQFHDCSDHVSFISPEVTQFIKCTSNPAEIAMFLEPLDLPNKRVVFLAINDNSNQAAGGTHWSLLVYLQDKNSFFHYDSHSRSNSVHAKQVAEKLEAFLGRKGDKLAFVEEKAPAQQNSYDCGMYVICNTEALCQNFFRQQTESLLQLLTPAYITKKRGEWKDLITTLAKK
The class given is functional.

The target of assay [10] is Glyceraldehyde-3-phosphate dehydrogenase (Homo sapiens, UniProt P04406).
Sequence of Glyceraldehyde-3-phosphate dehydrogenase (P04406 whole entry): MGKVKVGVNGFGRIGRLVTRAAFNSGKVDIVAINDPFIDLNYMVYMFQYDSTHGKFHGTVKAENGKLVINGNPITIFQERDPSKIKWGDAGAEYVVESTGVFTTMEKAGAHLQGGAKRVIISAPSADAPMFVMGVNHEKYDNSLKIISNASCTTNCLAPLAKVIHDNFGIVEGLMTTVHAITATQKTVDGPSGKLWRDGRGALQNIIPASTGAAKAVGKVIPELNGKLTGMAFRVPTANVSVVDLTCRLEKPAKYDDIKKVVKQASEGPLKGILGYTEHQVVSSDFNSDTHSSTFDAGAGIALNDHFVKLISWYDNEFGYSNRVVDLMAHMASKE
The target of the next assay is Paired box protein Pax-8 (Homo sapiens, UniProt Q06710). Briefly: PAX8 transcriptional activity inhibition in RMG-I – RMG-I cells, luciferase, cherry-pick, dose response (AID 687027).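 Also: luciferase reporter driven by Pax8 target thyroperoxidase promoter measured by SteadyGlo luminescence.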 The class given is functional, cell-based.
Sequence of Paired box protein Pax-8 (Q06710 whole entry): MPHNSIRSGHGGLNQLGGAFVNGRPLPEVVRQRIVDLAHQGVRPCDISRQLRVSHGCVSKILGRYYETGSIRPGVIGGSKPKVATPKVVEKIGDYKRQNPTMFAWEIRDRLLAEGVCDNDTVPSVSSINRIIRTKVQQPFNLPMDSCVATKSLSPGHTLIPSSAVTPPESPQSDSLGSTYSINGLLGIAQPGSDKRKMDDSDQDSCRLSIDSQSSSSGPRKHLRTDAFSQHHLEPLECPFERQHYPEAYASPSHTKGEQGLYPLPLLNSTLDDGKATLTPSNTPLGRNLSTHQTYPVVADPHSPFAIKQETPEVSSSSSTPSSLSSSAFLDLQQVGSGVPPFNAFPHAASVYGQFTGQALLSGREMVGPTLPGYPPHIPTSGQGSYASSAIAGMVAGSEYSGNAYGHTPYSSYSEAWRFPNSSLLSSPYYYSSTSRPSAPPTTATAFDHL

What is called EC50 is the concentration giving half of the maximal effect. In the case of `CC(NC(=O)COC(=O)c1ccc2c(c1)S(=O)(=O)N=C1CCCCCN12)C12CC3CC(CC(C3)C1)C2` (centres undefined), the EC50 in assay [1] is > 120 µM (not active); in [2], > 120 µM (not active); in [3], 15.5 µM (active).

Turning to `O=C(CCc1nnc(-c2ccc(-c3ccccc3)cc2)o1)NCCc1ccccn1`, the EC50 in assay [2] is 21.4 µM (active).

Take `CCOc1ccc(-c2nc3n(c(=O)c2C#N)CCCS3)cc1`: the EC50 in assay [4] is 11.9 µM (active); on Streptokinase A, > 150 µM (not active); in assay [5], > 112 µM (not active); in [6] it was > 112 µM (not active); in the assay with Streptococcus, 148 µM (active).

By IC50 is commonly meant the midpoint of a concentration-inhibition curve. On to `Cn1c(/C(C#N)=C/c2ccc(O)cc2)nc2ccccc21`, for which the IC50 in assay [7] was 12 µM (active); in [8] it was 28.3 µM (active); in assay [9] it was 45 µM (active).

As to `Cc1onc(-c2ccccc2Cl)c1C(=O)NC(=S)Nc1ccc(C(C)(C)C)cc1`, the EC50 in assay [1] was > 120 µM (not active); in assay [2] it was > 120 µM (not active); in [3], 107 µM (active).

Take `COC(=O)c1ccc(C2C(C(=O)c3ccc4c(c3)CC(C)O4)=C(O)C(=O)N2Cc2ccncc2)cc1` (centres undefined): the EC50 in assay [5] and in assay [6] was > 112 µM (not active) in each case.

For `Cc1c(CCC(=O)N2CCC[C@H]2C(=O)O)c(=O)oc2c(C)c3oc4c(c3cc12)CCCC4`, the EC50 was 15.9 µM (active) in [1], 16.2 µM (active) in [2] and 14 µM (active) in assay [3].

Regarding `COc1cccc(-n2nc3c(S)nnc(C)c3c2C)c1`, the EC50 was 16.2 µM (active) in assay [1], > 120 µM (not active) in assay [2] and > 120 µM (not active) in assay [3].

For the compound `Cc1ccc(NC(=O)CNc2cc(S(=O)(=O)N3CCOCC3)ccc2NCC2CCCO2)cc1F` (centres undefined), the EC50 in [5] and in assay [6] was > 112 µM (not active) in each case.

`CCC(c1nnnn1Cc1ccccc1)N(Cc1ccco1)Cc1cc2cc(OC)ccc2nc1O` (centres undefined): the EC50 in assay [5] and in [6] was > 112 µM (not active) in each case.

For `NC(=O)c1nsc(C(=O)N(CC(=O)NC2CCCC2)c2cnc3ccccc3c2)c1N`, the EC50 in assay [5] is > 112 µM (not active); in assay [6], 17.1 µM (active).

In the case of `COc1ccc(NC(=O)CNC(=O)c2ccc([N+](=O)[O-])cc2)cc1`, the EC50 in [5] is > 112 µM (not active); in assay [6] it was 15.4 µM (active).

`Cc1ccc(NC(=O)c2cc(S(=O)(=O)N3CCOCC3)cn2C)cc1F`: the EC50 in assay [5] and in assay [6] was > 112 µM (not active) throughout.

For `COc1ccc(Cl)cc1S(=O)(=O)Nc1cnc2ccccc2c1`, in assay [10], the IC50 is > 10 µM (inconclusive).

As to `Cc1ccc(CNc2cc(-c3nn4c(C)nnc4s3)ccc2C)s1`, the EC50 in [1] is 9.69 µM (active); in assay [2], 56.1 µM (active); in assay [3], 22.5 µM (active).

Broadly, the AC50 is the concentration at which the activity in the assay is half-maximal. In the case of `C[C@@H]1CCCCO[C@@H](CN(C)C(=O)C2CCCCC2)[C@H](C)CN([C@@H](C)CO)C(=O)c2cc(NS(=O)(=O)c3ccc(Cl)cc3)ccc2O1`, the AC50 at Paired box protein Pax-8 is 9.05 µM (active).

For the compound `C[C@@H]1CN([C@@H](C)CO)C(=O)Cc2cc(NC(=O)Nc3ccc(C(F)(F)F)cc3)ccc2O[C@H]1CN(C)S(=O)(=O)c1ccc(F)cc1`, at Paired box protein Pax-8, the AC50 was 9.39 µM (active).

As for `COc1cccc(/C=N/NC(=O)N/N=C/c2cccc(OC)c2O)c1O`, the EC50 was 15.5 µM (active) in assay [1], > 120 µM (not active) in assay [2] and 9.36 µM (active) in [3].

For the compound `Cc1ccc(C)n1-c1ccc(S(N)(=O)=O)cc1`, in assay [10], the IC50 was > 100 µM (not active).

`O=C(NCCCO)c1cc(-c2cc(F)c(Cl)cc2Cl)n[nH]1`: the IC50 in assay [10] was > 10 µM (inconclusive).
